# Data as given in patent publication US6696533B1, “Stable N-oxly radical assisted emulsion polymerization under pressure” (BASF Aktiengesellschaft, priority 1997, dated 2004).
# Source text: The monomers and polymerization auxiliaries used in the examples below were used without further purification, in other words as acquired.
structure (smiles),measurement,value
"CC1(C)CCCC(C)(C)N1O [TEMPO, 2,2,6,6-tetramethyl-1-oxyl-piperidine]",molal solubility in water,6.4e-05 mol/kg
